# How the values were obtained:
# DIO-NASH mice = experiment: Oral glucose tolerance test (OGTT); type: in vivo, male C57BL/6 mice; settings: alone or combined, PO QD, DIO-NASH vehicle 1762 ± 45
# Method: Blood samples were collected into 10 μL heparinized glass capillary tubes. The sample was immediately suspended in buffer (0.5 ml of glucose/lactate system solution (EKF-diagnostics, Germany) and analyzed for glucose on the test day using a BIOSEN c-Line glucose meter (EKF-diagnostics, Germany). For triglyceride and cholesterol content, 100 μl blood was collected into Lithium-Heparin tubes. Plasma was separated and samples were stored at 4° C. for one day prior to analysis.
# In week 4 (LIRA and MET combinations) or week 6 (SIT combination) of treatment, an OGTT was performed in conscious free-moving animals. […] Animals were fasted for 4 h prior to test start (food removal from 6 AM to 10 AM). At t=0, mice received an oral bolus of glucose (2 g/kg) (200 mg/ml; Fresenius Kabi, Sweden) by oral gavage (10 ml/kg). Blood samples were collected from the tail vein (by snipping) and blood glucose was measured at time point 0, 15, 30, 60 and 120 minutes after the oral glucose administration. Mice were re-fed after the blood sampling and drug dosed as per usual.
# [1] = test system: HFD-induced rabbit model of MetS; settings: cited from earlier work
# [2] = high dose: OCA 30 mg/kg, MET 150 mg/kg
# [3] = low dose: OCA 10 mg/kg, MET 50 mg/kg
# [4] = HFD rabbits, in vivo OCA dosing
smiles,measurement,setting,value
"CN(C)C(=N)N=C(N)N [MET, metformin, reference compound]","OGTT Blood Glucose AUC, Week 4",DIO-NASH mice; [2],1480 ± 53 mmol·min/L
same,"OGTT Blood Glucose AUC, Week 4",DIO-NASH mice; [3],1698 ± 31 mmol·min/L
"CC[C@H]1[C@@H](O)[C@@H]2[C@H](CC[C@]3(C)[C@@H]([C@H](C)CCC(=O)O)CC[C@@H]23)[C@@]2(C)CC[C@@H](O)C[C@@H]12 [OCA, 3α,7α-dihydroxy-6α-ethyl-5β-cholan-24-oic acid]","OGTT Blood Glucose AUC, Week 4",DIO-NASH mice; [2],1778 ± 88 mmol·min/L
same,"OGTT Blood Glucose AUC, Week 4",DIO-NASH mice; [3],1680 ± 71 mmol·min/L
same,"adipocyte size, hypoxia, and expression of perilipin and GLUT4 (SLC2A4) in VAT","[1]; HFD rabbits vs rabbits on a control diet, immunohistochemistry, Western blot, RT-PCR",normalizes
same,amount of visceral AT (VAT),[1]; [4],marked reduction
same,expression of steatosis and inflammation markers,[1]; [4],normalizes
same,insulin resistance and metabolic profile,[1]; [4],ameliorates insulin resistance and the metabolic profile
